Values joined by “and” are separate entries in the source; they are usually repeats but may differ in a detail not shown here. Equal values may be shown once. Read-outs that look alike come from different tables or passages of the source.
What was measured:
[1] = molecular target: T1, CYP3A4 (Homo sapiens, UniProt P08684); test: Thermal denaturation (ligand-dependent changes in CYP3A4 melting temperature); format: binding; parameters: 4-histidine tag (C); made in house; host or cells: E. coli
Procedure: (§1) Thermal denaturation experiments were conducted as previously described (Sevrioukova and Poulos, 2013 J. Med. Chem. 56: 3733-41) to compare ligand-dependent changes in CYP3A4 stability. The inhibitory potency of the investigated compounds on the 7-benzyloxy-4-(trifluoromethyl)coumarin (BFC) O-debenzylation activity of CYP3A4 was evaluated fluorometrically in a reconstituted system with rat cytochrome P450 reductase (CPR). The reaction was carried out at room temperature in 100 mM phosphate buffer, pH 7.4, containing catalase and superoxide dismutase (2 Units/ml each). A mixture of 1 μM CYP3A4 and 1 μM CPR was preincubated for 1 hour at room temperature and diluted by 20-fold with the assay buffer immediately before measurements. BFC (50 μM) and various concentrations of analogs were added to the protein mixture 2 minutes prior to the reaction initiation with 100 μM NADPH. Formation of 7-hydroxy-4-trifluoromethylcoumarin was followed in a Hitachi F100 fluorometer using λex=430 nm and λem=500 nm. IC50 values were derived from the [% activity] vs. [inhibitor] plots.

[2] = molecular target: T1, CYP3A4; test: Kinetics of ligand binding to CYP3A4 (stopped flow); settings: for kfast (rate constant for the fast phase of the binding reaction): saturating ligand concentrations, room temperature, 2 μM CYP3A4
Procedure: Kinetics of ligand binding to CYP3A4 was monitored at room temperature in 50 mM phosphate, pH 7.4, in a SX.18MV stopped flow apparatus (Applied Photophysics,
UK) after mixing 2 μM CYP3A4 with various concentrations of ligands. […] Kinetic data were analyzed using the program IgorPro (WaveMetrics, Inc).

[3] = molecular target: T1, CYP3A4; test: Inhibition of BFC O-debenzylation activity of CYP3A4 in a reconstituted system with rat cytochrome P450 reductase
Procedure: as §1

[4] = molecular target: T1, CYP3A4; test: Spectral binding titrations (equilibrium titration of CYP3A4, spectral dissociation constant); parameters: 4-histidine tag (C); made in house; host or cells: E. coli
Procedure: Left insets depict difference spectra between the ligand-free and inhibitor-bound forms. Right insets are plots of the absorbance change versus inhibitor concentration, based on which the Kd values were calculated.

[5] = molecular target: T1, CYP3A4; test: 442 nm peak in the absorbance spectrum of ligand-bound ferrous CYP3A4
[6] = molecular target: T1, CYP3A4
Procedure: as §1

[7] = molecular target: T1, CYP3A4; remark: listed apart in the source
[8] = read-out: IC50 (concentration required for half-maximal inactivation of recombinant CYP3A4), BFC 50 μM, 100 μM NADPH, room temperature, pH 7.4
[9] = 50 mM phosphate pH 7.4, 20% glycerol, 1 mM dithiothreitol, single site, read-out: Ks (spectral dissociation constant)

T1 sequence (P08684 with tags, fused parts or gaps): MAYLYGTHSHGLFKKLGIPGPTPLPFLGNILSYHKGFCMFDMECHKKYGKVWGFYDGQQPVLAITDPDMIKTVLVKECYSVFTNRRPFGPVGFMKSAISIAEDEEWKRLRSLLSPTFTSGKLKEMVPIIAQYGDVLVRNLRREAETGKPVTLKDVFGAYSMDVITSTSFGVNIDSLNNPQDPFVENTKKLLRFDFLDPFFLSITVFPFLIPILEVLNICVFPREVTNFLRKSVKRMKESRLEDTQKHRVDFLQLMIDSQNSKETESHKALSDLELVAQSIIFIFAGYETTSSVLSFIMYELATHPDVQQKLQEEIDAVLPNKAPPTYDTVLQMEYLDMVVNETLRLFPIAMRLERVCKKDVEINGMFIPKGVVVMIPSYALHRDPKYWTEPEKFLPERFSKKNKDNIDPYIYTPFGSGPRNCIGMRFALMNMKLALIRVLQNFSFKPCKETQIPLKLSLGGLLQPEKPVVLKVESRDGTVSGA

SMILES | ΔTm (ligand-dependent changes in the melting temperature of CYP3A4) [1] [°C] | kfast (rate constant for the fast phase of the binding reaction) [2] | IC50 [3, 8] | Kd [4, 9] [µM] | 442 nm absorption of the ferrous ligand-bound form of CYP3A4 [5] | other results
CC(C)(C)OC(=O)N[C@H](CSCCC(=O)NCc1cccnc1)CC1CCCCC1 [Compound 11] | −2 ± 0.4 | 4.0 ± 0.2 s⁻¹ | 30 µM | 10 ± 1 | considerably smaller | –
CC(C)(C)OC(=O)N[C@H](CSCCC(=O)NCc1cccnc1)Cc1ccccc1 [Compound 15a] | −1 ± 0.2 | 1.7 s⁻¹ and 1.7 ± 0.2 s⁻¹ | 0.5 µM and 0.52 µM | 0.9 ± 0.1 | pronounced | –
CC(C)(C)OC(=O)N[C@H](CSCCC(=O)NCc1cccnc1)Cc1c[nH]c2ccccc12 [Compound 15b] | 0.2 | 8.0 ± 1.5 s⁻¹ | 0.2 µM and 0.21 µM | 0.5 ± 0.1 | pronounced | change of CYP3A4 Tm / thermal stability upon complex formation [1]: slightly increased
c1ccncc1 [pyridine, reference compound] | 0 | 0.5 ± 0.1 s⁻¹ | – | 4500 ± 400 | undetectable | IC50 ([3]; IC50 (concentration required for half-maximal inactivation of recombinant CYP3A4), BFC 50 μM, 100 μM NADPH, room temperature, pH 7.4): 4000 ± 500 µM; IC50 ([3]; IC50 on the BFC debenzylation activity of CYP3A4, one range given for pyridine, aminoethylpyridine and 5 together): 1000 to 4000 µM
CC(C)(C)OC(=O)NCCCCCC(=O)NCc1cccnc1 [Compound 4] | −0.2 | 20 s⁻¹ and 20 ± 2 s⁻¹ | 75 µM | 105 ± 10 | considerably smaller | –
NCCCCCC(=O)NCc1cccnc1 [Compound 5] | −0.2 | – | 1000 ± 150 µM | – | – | IC50 [6]: 1000 to 4000 µM; 442 nm absorption of the ferrous ligand-bound form of CYP3A4 [7]: undetectable; rate constants of monophasic binding reaction [2]: 0.5 to 0.8 s⁻¹; Kd ([4]; two binding sites, read-out: KS, second of two binding sites): 4400 µM; Kd ([4]; values derived from the two site saturation fit to a titration curve, two binding sites, read-out: Ks (spectral dissociation constant), two site saturation fit): 10 µM
NCCc1ccccn1 [aminoethylpyridine, reference compound] | −0.1 | 0.6 ± 0.1 s⁻¹ | 5000 ± 600 µM | 2500 ± 200 | undetectable | –
CC(C)(C)OC(=O)N[C@H](CN[C@@H](Cc1ccccc1)C(=O)NCCc1cccnc1)Cc1ccccc1 [Compound 01ERS089, N-BOC-Trp-S-N-Ph-Cys-CONH-Et-Pyr] | – | – | – | – | – | IC50 [3]: 0.39 µM; Kd ([4]; calculated from plots of absorbance change versus inhibitor concentration (FIG. 37), read-out: Kd (binding affinity to CYP3A4)): 0.13 µM
